Test results as given in article PMC9545474, “Anticancer Water‐Soluble Organoruthenium Complexes: Synthesis and Preclinical Evaluation” (Chembiochem, 2022).
Where a name gives a salt, the structure may show the parent alone. Read-outs that look alike come from different tables or passages of the source.

Tests used:
[1] = test system: A2780 ovarian cancer cells; assay: 24-hour MTT chemosensitivity assay with 72-hour recovery, A2780; type: cell-based, human; settings: for Selectivity index (SI), A2780: mean IC50 PNT2 / mean IC50 A2780
Experimental: (§1) Chemosensitivity studies were undertaken using a 24‐hour MTT assay, with a 72‐hour recovery period. The IC50 values were determined against ovarian A2780 (cisplatin‐sensitive) and A2780cisR (cisplatin‐resistant) cancer cell lines, non‐small‐cell lung H460 cancer cell line, and normal prostate PNT2 cell line, exposed to each of compounds 4–8, cisplatin or the phosphine ligands (Table 1 and S4, Figures S29–S31). […] This is unusual but can be related to solubility issues not visible for the naked eye and thus hindering its activity in cells. […] When tested on their own, the phosphine ligands are not active below 100 μM for all four cell lines. […] This therefore prevents comparison with the well‐known RAPTA family, and more especially with RAPTA−C which bears a PTA ligand and a p‐cym ligand, making this complex relatively similar in terms of geometry with complex 4.[21] […] This confirms the interest of the sulfur coordinating atom in terms of cytotoxicity for organoruthenium complexes.[23]
(§2) Chemosensitivity assay: In vitro chemosensitivity tests were performed against A2780, A2780cisR, PNT2 and H460 cells. Cells were routinely maintained as monolayer cultures in RPMI 1640 medium supplemented with 10 % foetal calf serum, penicillin (100 I.U./mL) and streptomycin (100 μg/mL), sodium pyruvate (1 mM) and L‐glutamine (2 mM). For chemosensitivity studies, cells were seeded in 96‐well plates at a concentration of 7.5×10^3 cells per well and the plates were incubated for 24 h at 37 °C and a 5 % CO2 humidified atmosphere prior to drug exposure.
(§3) Complexes were dissolved in either DMSO (complexes 4, 5, and 8) or PBS (complexes 6 and 7) to provide stock solutions which were further diluted with media to provide a range of final concentrations. Drug‐media solutions were added to cells (the final concentration of DMSO was less than 1 % (v/v) in all cases) and incubated for 24 h at 37 °C and a 5 % CO2 humidified atmosphere. The drug‐media solution was removed from the wells and the cells were washed with PBS (100 μL, twice) and 200 μL of complete fresh media were added to each well. The plates were further incubated for 72 h at 37 °C and a 5 % CO2 humidified atmosphere to allow for a period of recovery. 3‐(4,5‐dimethylthiazol‐2‐yl)‐2,5‐diphenyltetrazolium bromide (MTT) (40 μL, 2.5 mg/mL) was added to each well and plates were incubated for 2 h. All solutions were then removed and 100 μL of DMSO was added to each well in order to dissolve the purple formazan crystals. A Thermo Scientific Multiskan EX microplate photometer was used to measure the absorbance in each well at 570 nm. Cell survival was determined as the absorbance of treated cells divided by the absorbance of controls and expressed as a percentage. The IC50 values were determined from plots of % survival against drug concentration. Each experiment was repeated in triplicates of triplicates and a mean value was obtained and stated as IC50 (μM) ± SD. Untreated cells were used as a negative control, and cells treated with cisplatin were used as a positive control.

[2] = test system: H460 non-small-cell lung cancer cells; assay: 24-hour MTT chemosensitivity assay with 72-hour recovery, H460; type: cell-based
Experimental: as §1, §2, §3

[3] = test system: PNT2 non-cancerous human prostate cells; assay: 24-hour MTT chemosensitivity assay with 72-hour recovery, PNT2; type: cell-based
Experimental: as §1, §2, §3

[4] = test system: A2780cisR cisplatin-resistant ovarian cancer cells; assay: 24-hour MTT chemosensitivity assay with 72-hour recovery, A2780cisR; type: cell-based, human; settings: for IC50: read-out: IC50 values ±SD, A2780cisR; for Selectivity index (SI), A2780cisR: mean IC50 PNT2 / mean IC50 A2780cisR
Experimental: as §1, §2, §3

A2780 cells = assay: FITC annexin-V / PI apoptosis assay by flow cytometry; type: cell-based, human; settings: A2780, 24 h, complexes 2×IC50, doxorubicin 0.5 µM; for viability at 0.5 µM: Homo sapiens
Description: Annexin V‐FITC and propidium iodide (PI) have been used to distinguish between viable cells (Q1‐LL), early apoptotic cells (Q1‐LR), late apoptotic cells (Q1‐UR), and necrotic cells (Q1‐UL). […] Both complexes 6 and 8 induce apoptosis of A2780 cells and treatment with the complexes results in 99.6 % and 95.4 % of the cells in late apoptosis, respectively.
Figure 9 Flow cytometry analysis of A2780 cells exposed to complexes 6 or 8 at twice the IC50 concentration compared to a negative control. FITC reads annexin fluorescence and PE reads propidium iodide. Abbreviations: Q1‐UL=non‐viable cells; Q1‐UR=late‐stage apoptotic cells; Q1‐LR=early‐stage apoptotic cells and Q1‐LL=healthy cells.
FITC annexin‐V apoptosis assay: Flow cytometry analysis of apoptotic populations was carried out using the FITC Annexin V Apoptosis Detection Kit with PI (BioLegend®) according to manufacturer's instructions. Briefly, A2780 cells were seeded in 6‐well plates at a concentration of 1.0×10^6 cells per well and the plates were incubated for 24 h at 37 °C and a 5 % CO2 humidified atmosphere. […] Cells were then harvested using trypsin (without EDTA) and stained with PI/Annexin V‐FITC. After staining in the dark for 15 min at room temperature, cell pellets were analysed in a BD Accuri C6 Plus System flow cytometer and data was analysed using the BD Accuri C6 Plus software. These experiments were carried out in duplicate of triplicates in independent experiments; although only selected dot plots are shown, full numerical data and statistical analysis can be found in the Supporting Information.

[5] = Homo sapiens, A2780, read-out: IC50 values ±SD, A2780
[6] = Homo sapiens, NCI-H460, read-out: IC50 values ±SD, H460
[7] = Homo sapiens, PNT2, read-out: IC50 values ±SD, PNT2
[8] = 24 h exposure, 72 h recovery, MTT, read-out: IC50 values ±SD, A2780
[9] = 24 h exposure, 72 h recovery, MTT, read-out: IC50 values ±SD, H460
[10] = 24 h exposure, 72 h recovery, MTT, read-out: IC50 values ±SD, PNT2
[11] = 24 h exposure, 72 h recovery, MTT
[12] = Combined results, Average of two experiments

CC(=O)N1CN2CN(C(C)=O)CP(C2)C1 [DAPTA, 3,7‐diacetyl‐1,3,7‐triaza‐5‐phosphabicyclo[3.3.1]nonane]
IC50 [1, 5]: ≥ 100 µM
IC50 [2, 6]: ≥ 100 µM
IC50 [3, 7]: ≥ 100 µM
IC50 ([4]; Homo sapiens, A2780cisR): ≥ 100 µM

Cc1ccc(C(C)C)cc1.N#CC1=C(C#N)[S][Ru-]([P+](c2ccc(C(F)(F)F)cc2)(c2cccc(S(=O)(=O)[O-])c2)c2cccc(S(=O)(=O)[O-])c2)[S]1.[Na+].[Na+] [Complex 7, (η^6‐p‐cymene)(p‐DANPHOS)Ru(Mnt)]
IC50 [1, 8]: 2.8 ± 0.8 µM
Selectivity index (SI), A2780 [1]: 0.79
IC50 [2, 9]: 2.3 ± 0.3 µM
Selectivity index (SI), H460 ([2]; mean IC50 PNT2 / mean IC50 H460): 0.96
IC50 [3, 10]: 2.2 ± 0.1 µM
IC50 [4, 11]: 2.3 ± 0.7 µM
Selectivity index (SI), A2780cisR [4]: 0.96

O=S(=O)(O)c1cccc(P(c2cccc(S(=O)(=O)O)c2)c2cccc(S(=O)(=O)O)c2)c1 [TPPTS, triphenylphosphine‐3,3′,3′′‐trisulfonic acid trisodium salt]
IC50 [1, 8]: ≥ 100 µM
IC50 [2, 9]: ≥ 100 µM
IC50 [3, 10]: ≥ 100 µM
IC50 [4, 11]: ≥ 100 µM

O=S(=O)(O)c1cccc(P(c2ccc(C(F)(F)F)cc2)c2cccc(S(=O)(=O)O)c2)c1 [p-DANPHOS, bis(3‐sulfonatophenyl)(4‐trifluoromethylphenyl)phosphine disodium dihydrate]
IC50 [1, 5]: ≥ 100 µM
IC50 [2, 6]: ≥ 100 µM
IC50 [3, 7]: ≥ 100 µM
IC50 ([4]; Homo sapiens, A2780cisR): ≥ 100 µM

(η^6‐p‐cymene)(DAPTA)Ru(Mnt) [Complex 5]
IC50 [1, 8]: 14 ± 2 µM
Selectivity index (SI), A2780 [1]: 2.36
IC50 [2, 9]: ≥ 100 µM
IC50 [3, 10]: 33 ± 1.4 µM
IC50 [4, 11]: 72 ± 6 µM
Selectivity factor (cross-resistance, resistance factor RF) ([4]; IC50 A2780cisR / IC50 A2780): 5.1
Selectivity index (SI), A2780cisR [4]: 0.49

COc1cccc2c1C(=O)c1c(O)c3c(c(O)c1C2=O)C[C@@](O)(C(=O)CO)C[C@@H]3O[C@H]1C[C@H](N)[C@H](O)[C@H](C)O1 [Doxorubicin, doxorubicin, reference compound]
Early apoptosis (Q1-LR) (A2780 cells; [12]): 0.0%
Late apoptosis (Q1-UR) (A2780 cells; [12]): 99.9%
Necrosis (Q1-UL) (A2780 cells; [12]): 0.1%
Early apoptosis (Q1-LR) (A2780 cells; Experiment 1, Average): 0.0%
Late apoptosis (Q1-UR) (A2780 cells; Experiment 1, Average): 99.9%
Necrosis (Q1-UL) (A2780 cells; Experiment 1, Average): 0.1%
Viable cells (Q1-LL) (A2780 cells; Experiment 1, Average): 0.0%
Early apoptosis (Q1-LR) (A2780 cells; Experiment 1, Rep 1): 0.0%
Late apoptosis (Q1-UR) (A2780 cells; Experiment 1, Rep 1): 99.8%
Necrosis (Q1-UL) (A2780 cells; Experiment 1, Rep 1): 0.2%
Early apoptosis (Q1-LR) (A2780 cells; Experiment 1, Rep 2): 0.0%
Late apoptosis (Q1-UR) (A2780 cells; Experiment 1, Rep 2): 99.9%
Necrosis (Q1-UL) (A2780 cells; Experiment 1, Rep 2): 0.1%
Early apoptosis (Q1-LR) (A2780 cells; Experiment 1, Rep 3): 0.0%
Late apoptosis (Q1-UR) (A2780 cells; Experiment 1, Rep 3): 100.0%
Necrosis (Q1-UL) (A2780 cells; Experiment 1, Rep 3): 0.0%
Early apoptosis (Q1-LR) (A2780 cells; Experiment 2, Average): 0.0%
Late apoptosis (Q1-UR) (A2780 cells; Experiment 2, Average): 99.9%
Necrosis (Q1-UL) (A2780 cells; Experiment 2, Average): 0.0%
Viable cells (Q1-LL) (A2780 cells; Experiment 2, Average): 0.0%
Early apoptosis (Q1-LR) (A2780 cells; Experiment 2, Rep 1): 0.0%
Late apoptosis (Q1-UR) (A2780 cells; Experiment 2, Rep 1): 99.9%
Necrosis (Q1-UL) (A2780 cells; Experiment 2, Rep 1): 0.0%
Early apoptosis (Q1-LR) (A2780 cells; Experiment 2, Rep 2): 0.0%
Late apoptosis (Q1-UR) (A2780 cells; Experiment 2, Rep 2): 99.9%
Necrosis (Q1-UL) (A2780 cells; Experiment 2, Rep 2): 0.1%
Early apoptosis (Q1-LR) (A2780 cells; Experiment 2, Rep 3): 0.0%
Late apoptosis (Q1-UR) (A2780 cells; Experiment 2, Rep 3): 100.0%
Necrosis (Q1-UL) (A2780 cells; Experiment 2, Rep 3): 0.0%
viability at 0.5 µM (A2780 cells; Combined results, Average of two experiments, read-out: Viable cells (Q1-LL)): 0%
viability at 0.5 µM (A2780 cells; Experiment 1, Average, read-out: Viable cells (Q1-LL)): 0%
viability at 0.5 µM (A2780 cells; Experiment 1, Rep 1, read-out: Viable cells (Q1-LL)): 0%
viability at 0.5 µM (A2780 cells; Experiment 1, Rep 2, read-out: Viable cells (Q1-LL)): 0%
viability at 0.5 µM (A2780 cells; Experiment 1, Rep 3, read-out: Viable cells (Q1-LL)): 0%
viability at 0.5 µM (A2780 cells; Experiment 2, Average, read-out: Viable cells (Q1-LL)): 0%
viability at 0.5 µM (A2780 cells; Experiment 2, Rep 1, read-out: Viable cells (Q1-LL)): 0%
viability at 0.5 µM (A2780 cells; Experiment 2, Rep 2, read-out: Viable cells (Q1-LL)): 0.1%
viability at 0.5 µM (A2780 cells; Experiment 2, Rep 3, read-out: Viable cells (Q1-LL)): 0%

C1N2CN3CN1CP(C2)C3 [PTA, 1,3,5‐triaza‐7‐phosphaadamantane]
IC50 [1, 5]: ≥ 100 µM
IC50 [2, 6]: ≥ 100 µM
IC50 [3, 7]: ≥ 100 µM
IC50 ([4]; Homo sapiens, A2780cisR): ≥ 100 µM
